In the NIST ThermoML archive (doi:10.1016/j.jct.2006.09.006):
Numbers after ± are expanded uncertainties. Values belong to the compound of their own block, whether it stands above or below them.

Assays:
[1] = xn = mol fraction of the nth substance listed; settings: 298.15 K, 101.3 kPa, Liquid
[2] = 298.15 K; 101.33 kPa; Liquid

Structure (SMILES): CC(C)OC(C)C [diisopropyl ether] + CCO
- mass density ([1]; x1 = 0.1072): 774.5 ± 0.5 kg/m3
- mass density ([1]; x1 = 0.2007): 766.1 ± 0.5 kg/m3
- mass density ([1]; x1 = 0.3086): 757.6 ± 0.5 kg/m3
- mass density ([1]; x1 = 0.403): 751 ± 0.5 kg/m3
- mass density ([1]; x1 = 0.4811): 746 ± 0.6 kg/m3
- mass density ([1]; x1 = 0.6142): 738.3 ± 0.6 kg/m3
- mass density ([1]; x1 = 0.6993): 733.8 ± 0.6 kg/m3
- mass density ([1]; x1 = 0.7432): 731.7 ± 0.6 kg/m3
- mass density ([1]; x1 = 0.7863): 729.6 ± 0.6 kg/m3
- mass density ([1]; x1 = 0.8965): 724.4 ± 0.6 kg/m3
- mass density ([1]; x1 = 0.9129): 723.6 ± 0.6 kg/m3

Structure (SMILES): OCC(F)(F)F [2,2,2-trifluoroethanol] + CC(C)OC(C)C
- mass density ([1]; x2 = 0.0511): 1320 ± 1 kg/m3
- mass density ([1]; x2 = 0.1069): 1258.5 ± 0.9 kg/m3
- mass density ([1]; x2 = 0.1922): 1175.7 ± 0.7 kg/m3
- mass density ([1]; x2 = 0.2483): 1127.3 ± 0.6 kg/m3
- mass density ([1]; x2 = 0.2968): 1088.9 ± 0.5 kg/m3
- mass density ([1]; x2 = 0.4021): 1013.8 ± 0.4 kg/m3
- mass density ([1]; x2 = 0.4927): 957.1 ± 0.5 kg/m3
- mass density ([1]; x2 = 0.6059): 894 ± 0.5 kg/m3
- mass density ([1]; x2 = 0.6997): 846.9 ± 0.5 kg/m3
- mass density ([1]; x2 = 0.8024): 799.8 ± 0.6 kg/m3
- mass density ([1]; x2 = 0.9113): 754.2 ± 0.6 kg/m3

Structure (SMILES): FC(F)(F)c1ccccc1 [(trifluoromethyl)benzene]
- mass density [2]: 1182.18 ± 0.48 kg/m3

Structure (SMILES): FC(F)(F)c1ccccc1 [(trifluoromethyl)benzene] + CCO
- mass density ([1]; x1 = 0.1051): 864 ± 0.4 kg/m3
- mass density ([1]; x1 = 0.1999): 921.7 ± 0.3 kg/m3
- mass density ([1]; x1 = 0.2454): 945.8 ± 0.3 kg/m3
- mass density ([1]; x1 = 0.3059): 975.2 ± 0.2 kg/m3
- mass density ([1]; x1 = 0.4057): 1017.5 ± 0.2 kg/m3
- mass density ([1]; x1 = 0.5022): 1052.8 ± 0.3 kg/m3
- mass density ([1]; x1 = 0.5855): 1079.7 ± 0.3 kg/m3
- mass density ([1]; x1 = 0.7052): 1113.7 ± 0.4 kg/m3
- mass density ([1]; x1 = 0.7886): 1134.9 ± 0.4 kg/m3
- mass density ([1]; x1 = 0.9032): 1161.5 ± 0.4 kg/m3

Structure (SMILES): OCC(F)(F)F [2,2,2-trifluoroethanol]
- mass density [2]: 1382.4 ± 1.5 kg/m3

Further lines, results first:

- mass density [2]: 719.17 ± 0.96 kg/m3
Structure (SMILES): CC(C)OC(C)C [diisopropyl ether]

- mass density [2]: 785.6 ± 0.24 kg/m3
Structure (SMILES): CCO [ethanol]
